Assay results published in US20240174675A1, “SMALL MOLECULE REGULATORS OF ALVEOLAR TYPE 2 CELL PROLIFERATION FOR THE TREATMENT OF PULMONARY DISEASES” (THE SCRIPPS RESEARCH INSTITUTE, priority 2021, published 2024).
“Also recorded” adds a separate entry of the source.

Legend:
[1] = system: AEC2s; assay: Single cell RNA-sequencing from the lungs of mice (proliferating cell types); format: in vivo; conditions: mouse lung, 0.5 mg/kg IT; for cell types proliferative in response to treatment: animals sacrificed 2 and 4 days after dosing (FIG. 5)
Protocol: Single cell RNA-sequencing from the lungs of mice was performed to understand which cell types are proliferative in response to compound 46 treatment.

[2] = molecular target: T1, Human DPP4 (Homo sapiens, UniProt P27487); assay: DPP4 activity assay (DPP4 Activity Assay Kit, fluorescent substrate); format: biochemical; conditions: Human DPP4; read-out: DPP4 inhibition IC50 [nM])
T1 construct: purchased Sigma-Aldrich MAK088
Protocol: DPP4 activity assay. Human DPP4 activity assay data were obtained using a DPP4 Activity Assay Kit (Sigma-Aldrich, MAK088) according to the manufacturer's instructions. Briefly, 10 μL of DPP4 Assay Buffer were transferred per well in low volume 384-well plates before transferring 10 μL of test compound dissolved in DPP4 assay buffer. To each well was added 5 μL of Master Reaction Mix containing a fluorescent substrate that becomes fluorescent upon cleavage by the enzyme. Fluorescence intensity measurements were recorded at 1-minute time intervals over the course of 20 minutes using an Envision Multimode Plate Reader (PerkinElmer).

[3] = system: bleomycin induced lung fibrosis in mice; assay: Bleomycin induced lung fibrosis model; format: in vivo, C57BL/6J mice; conditions: for efficacy in combination with Nintedanib: Compound 46 0.5 mg/kg IT, E4D, Bliss independence, BALF protein content and Ashcroft scoring (FIG. 4)
Protocol: Bleomycin (Hospira) was used to induce lung fibrosis in mice. Body weight matched (24 gram˜28 gram) male C57BL/6J mice at 10-12 weeks of age were selected to use in bleomycin model.
(§1) For oral delivery, DPP4 inhibitors were dissolved in PBS resulting in clear solution. Vehicle control or DPP4 inhibitors were dosed at 10 ml/kg through oral gavage once or twice a day selected based on PK profile. For intratracheally delivered DPP4 inhibitors, compounds were dissolved in PBS resulting in clear solution. Vehicle control or DPP4 inhibitors were dosed at 2 ml/kg through a 22 g flexible catheter every four days.
0.5 U/kg Bleomycin or PBS in sham group was intratracheally injected into mice lung at day 0. DPP4 inhibitors or vehicle control were given to mice starting from one day before bleomycin injection (day −1).
All animals were sacrificed at day 20 after bleomycin injection. Bronchoalveolar lavage fluid (BALF) was retrieved using standard method. 1 ml 4% formalin was used to inflate the lung, which was subsequently fixed in 4% formalin for 24 hours and preserved in […] until histological process.
For readouts, body weight was measured every day; total protein content in BALF was quantified using BCA assay; pulmonary fibrosis was assessed using Masson's trichrome staining.

[4] = Pharmacokinetic profiling, plasma and lung levels after intratracheal or inhalation delivery in the mouse; format: in vivo; conditions: for Kp: read-out: AUC ratio; for AUC(0-t): read-out: AUC0-24; for MRT inf: read-out: MRT0-inf
[5] = Pharmacokinetic profiling, plasma and lung levels after intratracheal delivery in the rat; format: in vivo; conditions: Male, Sprague Dawley strain, 2 mg/kg, 1 mg/ml in PBS; for MRT inf: read-out: MRT0-inf
Protocol: To assess the time course of the plasma and lung exposure of compounds disclosed herein, rodents were dosed IT with an exemplary compound of the present disclosure. The plasma and lung samples were taken at different time points. The drug levels were measured by LCMS.

[6] = system: LPS induced acute lung injury in mice; assay: LPS-induced acute lung injury (ALI) model; format: in vivo, C57BL/6J mice; conditions: mouse ALI model; every other day via intratracheal administration
Protocol: LPS from E. coli […] (Sigma) was used to induce acute lung injury in mice. Body weight matched (19 gram-22 gram) female C57BL/6J mice at 9-11 weeks of age were selected to use in ALI model.
as §1, with “other day.” for “four days.”
LPS (1.5 mg/kg for testing orally delivered DPP4 inhibitors and 1.2 mg/kg for testing intratracheally delivered DPP4 inhibitors) or PBS in sham group was intratracheally injection into mice lung at day 0. DPP4 inhibitors or vehicle control were given to mice starting from one day before LPS injection (day −1).
All animals were sacrificed at day 3.5 after LPS injection. Bronchoalveolar lavage fluid (BALF) was retrieved using standard method. 1 ml 4% formalin was used to inflate the lung, which was subsequently fixed in 4% formalin for 24 hours and preserved in 70% EtOH until histological process.
For readouts, total protein content in BALF was quantified using BCA assay; pulmonary inflammation and damage were assessed using H & E staining.

[7] = Mouse, Male, CD-1 strain, Intratracheal, 2 mg/kg, 1 mg/ml in PBS, Lung
[8] = Mouse, Male, CD-1 strain, Intratracheal, 2 mg/kg, 1 mg/ml in PBS, Plasma
[9] = inhaled or intranasal, Mouse, Male, CD-1 strain, Inhalation, 10 mg/ml in PBS for 15 mins, Lung
[10] = inhaled or intranasal, Mouse, Male, CD-1 strain, Inhalation, 10 mg/ml in PBS for 15 mins, Plasma
[11] = inhaled or intranasal, Mouse, Male, CD-1 strain, Intratracheal, 2 mg/kg, 1 mg/ml in PBS, Lung
[12] = inhaled or intranasal, Mouse, Male, CD-1 strain, Intratracheal, 2 mg/kg, 1 mg/ml in PBS, Plasma
[13] = mouse, IT dosing at 2 mg/kg (FIG. 2)

T1 sequence (P27487 whole entry): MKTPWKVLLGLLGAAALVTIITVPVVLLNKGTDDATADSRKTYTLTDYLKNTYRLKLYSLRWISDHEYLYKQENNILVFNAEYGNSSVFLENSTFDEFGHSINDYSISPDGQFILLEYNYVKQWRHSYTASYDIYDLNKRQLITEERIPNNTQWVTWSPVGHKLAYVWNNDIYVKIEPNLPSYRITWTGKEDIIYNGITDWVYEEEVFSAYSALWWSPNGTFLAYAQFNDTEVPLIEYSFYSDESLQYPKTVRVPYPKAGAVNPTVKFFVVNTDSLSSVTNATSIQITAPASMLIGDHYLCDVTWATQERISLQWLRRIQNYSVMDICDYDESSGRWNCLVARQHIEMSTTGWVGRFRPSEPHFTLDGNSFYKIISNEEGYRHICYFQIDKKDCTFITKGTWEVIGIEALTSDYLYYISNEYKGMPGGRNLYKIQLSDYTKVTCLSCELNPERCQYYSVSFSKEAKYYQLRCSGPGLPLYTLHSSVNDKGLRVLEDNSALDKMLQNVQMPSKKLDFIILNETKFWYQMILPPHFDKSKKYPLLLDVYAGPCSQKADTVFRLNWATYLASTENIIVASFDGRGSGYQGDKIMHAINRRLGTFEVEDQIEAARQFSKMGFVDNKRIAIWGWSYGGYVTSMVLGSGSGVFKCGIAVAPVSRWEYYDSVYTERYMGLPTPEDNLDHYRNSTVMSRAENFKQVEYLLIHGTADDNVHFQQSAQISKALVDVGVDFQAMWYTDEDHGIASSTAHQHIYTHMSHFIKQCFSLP

Question: What does the source list for `CCCCCCN(Cc1cn(CCOCCOCCOC(=O)c2nc(C(F)(F)F)n3c2CN(C(=O)C[C@H](N)Cc2cc(F)c(F)cc2F)CC3)nn1)C[C@H](O)[C@@H](O)[C@H](O)[C@H](O)CO` [Compound 46, 2-(2-(2-(4-((hexyl(2,3,4,5,6-pentahydroxyhexyl)amino)methyl)-1H-1,2,3-triazol-1-yl)ethoxy)ethoxy)ethyl 7-((R)-3-amino-4-(2,4,5-trifluorophenyl)butanoyl)-3-(trifluoromethyl)-5,6,7,8-tetrahydroimidazo[1,5-a]pyrazine-1-carboxylate]?
Answer: accumulation of AEC2s after treatment ([1]; 2 and 4 days after dosing): time-dependent accumulation of AEC2s; cell types proliferative in response to treatment ([1]; listed as Compound 46, 0.5 mg/kg): selectively expanded AEC2s; cell types proliferative in response to treatment ([1]; listed as compound 46, 0.5 mg/kg): only cycling and transitional AEC2s were induced to proliferate; IC50 [2]: 0.15 nM; efficacy in combination with Nintedanib ([3]; bleomycin model, listed as Compound 46, 0.5 mg/kg): synergistic efficacy; efficacy in combination with Nintedanib ([3]; bleomycin model, listed as compound 46, 0.5 mg/kg): impressive and synergistic efficacy; minimal efficacious dose ([3]; bleomycin model, every four-day intratracheal dosing regime): 0.5 mg/kg; efficacy in the bleomycin induced pulmonary fibrosis model ([3]; mouse, intratracheally 0.5 mg/kg every four days, body weight, BALF protein, fibrotic area, modified Ashcroft scores (FIG. 3)): displayed efficacy; also recorded: rescue of key metrics including body weight, BALF protein content, fibrotic area, and histological scoring; AUC0-inf ([4]; Mouse, Male, CD-1 strain, Inhalation, 10 mg/ml in PBS for 15 mins, Lung): 509,951 ng · h/g; AUC ratio ([4]; Mouse, Male, CD-1 strain, Inhalation, 10 mg/ml in PBS for 15 mins, Plasma): 1; AUC0-24 [4, 7]: 258,902 ng · h/g; AUC0-inf [4, 7]: 1,082,408 ng · h/g; Tmax [4, 7]: 15 min; Kp [4, 7]: 1350; AUC ratio [4, 8]: 1; AUC(0-t) [4, 8]: 728 ng·h/mL; AUC0-inf ([4]; Mouse, Male, CD-1 strain, Intratracheal, 2 mg/kg, 1 mg/ml in PBS, Plasma, read-out: AUC0-inf): 729 ng·h/mL; MRT inf [4, 8]: 1.88 h; Cmax [4, 9]: 20900 ng/g; Tmax [4, 9]: 15 min; Kp [4, 9]: 9240; Cmax [4, 10]: 35.9 ng/mL; Tmax [4, 10]: 30 min; half-life [4, 10]: 90 min; AUC(0-t) [4, 10]: 53.4 ng·h/mL; AUC0-inf ([4]; inhaled or intranasal, Mouse, Male, CD-1 strain, Inhalation, 10 mg/ml in PBS for 15 mins, Plasma, read-out: AUC0-inf): 55.2 ng·h/mL; MRT inf [4, 10]: 1.69 h; Cmax [4, 11]: 24600 ng/g; half-life [4, 11]: 3250 min; MRT inf [4, 11]: 80.6 h; Cmax [4, 12]: 435 ng/mL; Tmax [4, 12]: 15 min; half-life [4, 12]: 76.8 min; plasma and lung exposure profiles compared to retagliptin [4, 13]: significantly higher plasma and lung exposure profiles compared to retagliptin; time retained in the lung [4, 13]: 7 days; AUC0-24 ([5]; Lung): 658004 ng·h/g; AUC0-inf ([5]; Lung): 4738852 ng·h/g; AUC ratio ([5]; Plasma): 1; Cmax ([5]; inhaled or intranasal, Lung): 41400 ng/g; Tmax ([5]; inhaled or intranasal, Lung): 15 min; half-life ([5]; inhaled or intranasal, Lung): 4.96 days; Kp ([5]; inhaled or intranasal, Lung, read-out: AUC ratio): 145; MRT inf ([5]; inhaled or intranasal, Lung): 186 h; Cmax ([5]; inhaled or intranasal, Plasma): 14700 ng/mL; Tmax ([5]; inhaled or intranasal, Plasma): 15 min; half-life ([5]; inhaled or intranasal, Plasma): 2.87 days; AUC(0-t) ([5]; inhaled or intranasal, Plasma, read-out: AUC0-24): 18000 ng·h/mL; AUC0-inf ([5]; inhaled or intranasal, Plasma, read-out: AUC0-inf): 18600 ng·h/mL; MRT inf ([5]; inhaled or intranasal, Plasma): 6 h; minimal efficacious dose [6]: 0.02 mg/kg
